From BindingDB's records for patent US20240216357 (Sichuan Huiyu Pharmaceutical, 2024)

Target: Lysine-specific histone demethylase 1A (Homo sapiens, UniProt O60341)
Assay: LSD1 Enzyme Activity Assay

SMILES	IC50
Cc1ccc(-c2c(-c3ccc(C#N)cc3)nc3c(N4CCC[C@@H](N)C4)nccn23)cc1 [US20240216357, Example 5]	28.5 nM
COc1ccc(Nc2c(O)cc(N3CCC(N)CC3)nc2-c2ccc(C#N)c(F)c2)cc1F [US20240216357, Example 64]	119 nM
COc1cc(N2CCC(N)CC2)nc(-c2ccc(C#N)c(F)c2)c1-c1ccc(Cl)c(O)c1 [US20240216357, Example 98]	0.7 nM
COc1ccc(-c2nc(N3CCC(N)CC3)cc(C#N)c2-c2ccc(C#N)c(F)c2)cc1O [US20240216357, Example 274]	23.8 nM
COc1ccc(-c2c(-c3ccc(C#N)c(F)c3)nc(N3CCC(N)CC3)c3c2OCC(=O)N3)cc1O [US20240216357, Example 280]	0.272 nM
Cc1noc2cc(-c3cc(C#N)c(N4CCC(N)CC4)nc3-c3ccc(C#N)c(F)c3)c(F)cc12 [US20240216357, Example 284]	633 nM
COc1ccc(-c2c(-c3ccc(C#N)c(F)c3)nc(N3CCC(N)CC3)c3c2cnn3C)cc1O [US20240216357, Example 285]	0.93 nM
